From ChEMBL document CHEMBL5724696, “Autophagy assay results for EUbOPEN Chemogenomics Library” (2024)

Tests used:
[1] = tested on: U2OS; test: (§1) Here: values are normalized to the positive (DMSO; basel flux = defined as 100% suppression) and negative (250nM Torin1; mTOR inhibitor; maximal inducer of autophagy defined as 0% suppression) control compounds and represented as % of ER-phagy suppression. […] The impact of autophagy induction on cells is complex and depends on the affected target. […] Of note, treatment concentrations may be sub-optimal for specific compounds, leading to false negative annotations.; format: functional, Homo sapiens; details: Compound Concentration 1 uM, Culturing Media DMEM, 1 % Penicillin/Streptomycin, 10% Fetal bovin serum Add-On: blasticidin, Screening Media Control DMEM, 10% Fetal bovin serum Add-On: 1 µg/ml Doxycyclin, Screening Media Samples DMEM, 10% Fetal bovin serum Add-On: 1 µg/ml Doxycyclin 250nM Torin1
[2] = tested on: U2OS; test: as §1; format: functional, Homo sapiens; details: Compound Concentration 1 uM, Culturing Media DMEM, 1 % Penicillin/Streptomycin, 10% Fetal bovin serum Add-On: blasticidin, Screening Media Control DMEM, 10% Fetal bovin serum Add-On: 1 µg/ml Doxycyclin, Screening Media Samples DMEM, 10% Fetal bovin serum Add-On: 1 µg/ml Doxycyclin 250nM Torin1; remark: listed apart in the source

| SMILES | ER-phagy suppression ([1]; Timepoint 12 hours) [%] | ER-phagy suppression ([1]; Timepoint 24 hours) [%] | ER-phagy suppression ([1]; Timepoint 36 hours) [%] | ER-phagy suppression ([1]; Timepoint 60 hours) [%] | ER-phagy suppression ([2]; Timepoint 12 hours) [%] | ER-phagy suppression ([2]; Timepoint 24 hours) [%] | ER-phagy suppression ([2]; Timepoint 36 hours) [%] | ER-phagy suppression ([2]; Timepoint 54 hours) [%] |
| --- | --- | --- | --- | --- | --- | --- | --- | --- |
| O=c1cc(N2CCOCC2)oc2c1ccc1ccccc12 | -2.095 | 14.4083 | 8.467 | 13.3057 | 4.944 | -13.6038 | -17.5746 | -11.078 |
| NC(=O)c1ccc2[nH]c(-c3ccc(Oc4ccc(Cl)cc4)cc3)nc2c1 | -30.239 | -28.4978 | -29.0961 | -19.7873 | -2.841 | -13.7146 | -23.7031 | -21.3336 |
| COc1cc(Nc2nccc(-c3cnn4nc(OC)ccc34)n2)cc(C(F)(F)F)c1 | 6.994 | 7.618 | 14.0346 | 17.1827 | 3.334 | -9.159 | -23.3987 | -10.034 |
| O=c1cc(N2CCOCC2)oc2c(-c3cccc4c3sc3ccccc34)cccc12 | 23.1915 | 21.6983 | 3.92 | -4.5 | 29.2209 | 24.7237 | 22.7043 | 31.557 |
| CC(=O)Nc1ccc2ccn(-c3cc(NC4CC4)n4ncc(C#N)c4n3)c2c1 | 13.0338 | 48.9829 | 66.3165 | 75.9257 | 46.1231 | 56.6622 | 75.9855 | 85.4784 |
| C[C@@H]1CN(CC(=O)Nc2ccc3c(c2)Cc2cccc(-c4cc(=O)cc(N5CCOCC5)o4)c2S3)C[C@H](C)O1 | 56.3007 | 45.431 | 40.5334 | 35.1087 | 73.6735 | 67.8887 | 67.4998 | 71.8155 |
| O=c1[nH]c2ccc(Cl)cc2c(N[C@@H]2CN3CCC2CC3)c1-c1nc2ccccc2[nH]1 | -7.286 | 62.247 | 75.9097 | 86.9183 | 27.312 | 66.3141 | 83.8118 | 95.864 |
| CC(C)C(=O)Nc1n[nH]c2cc(-c3cccc(NS(=O)(=O)C4CC4)c3)ccc12 | 0.1153 | 4.089 | -6.11 | -14.0127 | 3.579 | -4.784 | -8.796 | -3.527 |
| O=C(O)CSc1ncnc2cc(-c3cc4ccccc4s3)sc12 | -19.6328 | -17.1874 | -14.8161 | -4.092 | 0.5897 | -12.2442 | -19.5389 | -8.371 |
| O=C(NCCCN1CCOC1=O)c1cnc(NCc2cc(Br)ccc2Br)nc1NC1CCCC1 | -10.749 | -21.0292 | -39.1494 | -40.5418 | -5.816 | -18.1911 | -20.9165 | -12.0292 |
| O=C(O)CSc1ncnc2sc(-c3cc4ccccc4s3)cc12 | -22.3534 | -5.037 | -13.712 | -10.482 | -2.052 | -18.7288 | -21.1701 | -12.8701 |
| CCN(Cc1ccc(Cl)cc1)c1ncc(C(=O)NCCCN2CCCC2=O)c(NC2CCCC2)n1 | 19.3372 | 13.3398 | 3.8795 | -6.981 | -0.9186 | -13.7517 | -21.2457 | -16.9406 |
| O=C(NCc1ccccc1)c1ccc(S(=O)(=O)NCc2ccccc2)cc1 | -6.979 | -12.761 | -1.702 | -8.939 | 3.538 | -5.467 | -1.304 | 10.3755 |
| CN(C)[C@H]1C[C@H](n2cnc(-c3ccc(F)cn3)c2-c2ccnc3[nH]ccc23)C1 | 23.5482 | 2.98 | 12.4603 | 17.3235 | 22.3816 | 21.0505 | 31.8624 | 38.0418 |
| Cn1ccc(Cn2cnc(-c3ccc(F)cc3)c2-c2ccnc3[nH]ccc23)n1 | -25.1326 | -19.5738 | 5.753 | 8.035 | 3.096 | -2.866 | 1.074 | 6.853 |
| CN(C)C1CC(n2cnc(-c3ccc(F)cc3)c2-c2ccnc3[nH]ccc23)C1 (centres undefined) | -29.1009 | -31.4509 | -16.9551 | -15.1332 | 7.195 | 4.326 | 10.3106 | 11.0097 |
| Cc1ccc(N(C)c2cc(N(C)C3CC3)n3ncc(C#N)c3n2)cc1NC(=O)C1CC1 | 27.2035 | 42.1045 | 58.091 | 60.0735 | 38.742 | 47.4692 | 65.8045 | 75.1314 |
| Fc1ccc(-c2ncn(Cc3nc[nH]n3)c2-c2ccnc3[nH]ccc23)cc1 | 1.163 | 2.249 | 8.909 | 19.5799 | -8.055 | -11.2707 | -18.4467 | -16.7104 |
